Here are results for 15 compounds from ChEMBL document CHEMBL1201862, “PubChem BioAssay data set” (2004).

Test systems include A549; CCRF-CEM; SW-620; MOLT-4; M14; DMS-114; SK-OV-3; CAKI-1; EKVX; DLD-1; NCI-H460; COLO 205; UACC-257; IGROV-1; A498.
What all share (experiment): NCI anticancer screen, dose series, 48 h

SMILES strings stand for the structures.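 Grown in 96-well plates, cells were treated for 48 hours with each compound at five concentrations. Insufficient inhibition: endpoint recorded as highest concentration tested. The concentration for 50% growth inhibition is given as GI50.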 Active and inactive are the calls of the source. No stated cut-off is given here; in the data, active = GI50 up to about 1.1 µM and inactive = higher.

Consider `N#C/C(=C/c1ccc[nH]1)P(=O)(O)O`, for which the GI50 in the experiment with A549, with CCRF-CEM, in the experiment with SW-620, in the experiment with MOLT-4, in the experiment with M14 and in the experiment on DMS-114 was > 100 µM (inactive) throughout. Besides, the GI50 in the experiment with SK-OV-3, in the experiment with CAKI-1, with EKVX, with DLD-1, in the experiment with NCI-H460 and with COLO 205 was > 100 µM (inactive) throughout. Also, the GI50 in the experiment on UACC-257 is > 100 µM (inactive).

Regarding `CCc1cccc(C)c1NC(=O)CC1C(=O)Nc2ccccc2S1(=O)=O` (stereo unspecified), the GI50 in the experiment on A549 was 18.6 µM (inactive); in the experiment on CCRF-CEM it was 13.7 µM (inactive); in the experiment with SW-620, 15.2 µM (inactive); in the experiment with MOLT-4, 14.1 µM (inactive); in the experiment on M14, 18.9 µM (inactive); with DMS-114, 16.8 µM (inactive). Moreover, the GI50 with CAKI-1 was 14.2 µM (inactive); in the experiment with IGROV-1 it was 13.4 µM (inactive); in the experiment with EKVX, 15.5 µM (inactive); in the experiment on A498 it was 21 µM (inactive); with DLD-1, 15.8 µM (inactive); with NCI-H460, 13.1 µM (inactive). Besides, the GI50 with UACC-257 was 18.9 µM (inactive).

With `Cc1nc2ccccc2c(=O)n1/N=C(\N=N\c1ccccc1Cl)c1ccccc1Cl`, the GI50 in the experiment with A549 was > 100 µM (inactive); in the experiment with CCRF-CEM it was 77.3 µM (inactive); with SW-620, > 100 µM (inactive); with MOLT-4 it was 22.1 µM (inactive); in the experiment on M14, > 100 µM (inactive); in the experiment with DMS-114 it was 26.4 µM (inactive). For the same compound, the GI50 is 22.9 µM (inactive) with SK-OV-3; 29.4 µM (inactive) with CAKI-1; 42.1 µM (inactive) in the experiment with IGROV-1; 28.8 µM (inactive) with EKVX; 43 µM (inactive) in the experiment on A498; 67.5 µM (inactive) in the experiment on DLD-1. In addition, the GI50 in the experiment with NCI-H460 is 73.5 µM (inactive); in the experiment on COLO 205, > 100 µM (inactive).

For `CCCN1CN(C(C(=O)N[C@@H]2C(=O)N3C(C(=O)O)=C(C)CSC23)c2ccccc2)CSC1=S` (stereo partly specified), the GI50 was > 100 µM (inactive) in the experiment on A549; 95.1 µM (inactive) with CCRF-CEM; > 100 µM (inactive) with MOLT-4; > 100 µM (inactive) with M14; > 100 µM (inactive) with SK-OV-3; > 100 µM (inactive) in the experiment on IGROV-1. The GI50 in the experiment on EKVX is > 100 µM (inactive); in the experiment with A498 it was > 100 µM (inactive); in the experiment with DLD-1, > 100 µM (inactive); in the experiment on NCI-H460, 42.5 µM (inactive); with COLO 205, 47.1 µM (inactive); in the experiment with UACC-257, > 100 µM (inactive).

As for `Nc1ccc(C(=O)N/C(=C\c2ccc3c(c2)OCO3)c2nc3c(O)nc(S)nc3[nH]2)cc1`, the GI50 with A549, in the experiment with CCRF-CEM, in the experiment on SW-620, with MOLT-4, in the experiment with M14 and with SK-OV-3 was > 100 µM (inactive) throughout. Also, the GI50 with CAKI-1, with IGROV-1, in the experiment with EKVX, with DLD-1 and with COLO 205 was > 100 µM (inactive) each time.

In the case of `CCCCC(C)/C=C/C(O)=C1\C(=O)O/C(=C\C(=O)O)C1=O` (stereo unspecified), the GI50 in the experiment on A549, with CCRF-CEM, with SW-620, with MOLT-4, in the experiment on M14 and in the experiment with DMS-114 was > 100 µM (inactive) in each case. In addition, the GI50 with SK-OV-3, with IGROV-1, in the experiment with EKVX, with A498, in the experiment with NCI-H460 and in the experiment with COLO 205 was > 100 µM (inactive) each time. In addition, the GI50 in the experiment with UACC-257 was > 100 µM (inactive).

As to `COc1ccc2[nH]c3c(C)c4cc[n+](COC(=O)c5ccccc5)cc4c(C)c3c2c1`, the GI50 was 0.269 µM (active) with A549; 0.0698 µM (active) with CCRF-CEM; 0.0668 µM (active) in the experiment with SW-620; 0.0379 µM (active) in the experiment on MOLT-4; 0.641 µM (active) with M14; 0.279 µM (active) with DMS-114. Besides, the GI50 was 1.22 µM (inactive) in the experiment on SK-OV-3; 0.569 µM (active) in the experiment with CAKI-1; 0.158 µM (active) in the experiment on IGROV-1; 1.11 µM (active) in the experiment on A498; 0.0357 µM (active) in the experiment with NCI-H460; 1.19 µM (inactive) in the experiment on UACC-257.

As for `CCOc1ccc(NC(=O)C(=O)CC(=O)c2c[n+]([O-])c3cc(C)c(C)cc3[n+]2[O-])cc1`, the GI50 in the experiment with A549, in the experiment on CCRF-CEM, in the experiment on SW-620, with MOLT-4, in the experiment on M14 and with DMS-114 was > 100 µM (inactive) throughout. The GI50 in the experiment on SK-OV-3 was > 100 µM (inactive); in the experiment with CAKI-1, > 100 µM (inactive); in the experiment with IGROV-1, > 100 µM (inactive); in the experiment with EKVX it was 90.8 µM (inactive); in the experiment with A498, > 100 µM (inactive); in the experiment on NCI-H460, > 100 µM (inactive). Besides, the GI50 with COLO 205 and in the experiment on UACC-257 was > 100 µM (inactive) each time.

Regarding `O=c1c2ccccc2nc(-c2ccccc2Cl)n1NCC1(O)OCC(O)C(O)C1O` (stereo unspecified), the GI50 in the experiment on A549, with CCRF-CEM, in the experiment with SW-620, in the experiment with MOLT-4, in the experiment on M14 and in the experiment on DMS-114 was > 100 µM (inactive) in each case. Moreover, the GI50 in the experiment with SK-OV-3, with CAKI-1, in the experiment with EKVX, in the experiment on A498, in the experiment with NCI-H460 and in the experiment on COLO 205 was > 100 µM (inactive) in each case. Moreover, the GI50 in the experiment on UACC-257 is > 100 µM (inactive).

As to `Cc1cc2oc(-c3ccccc3)c(C)c(=O)c2c2c1OC(C)(C)S2`, the GI50 is 90.2 µM (inactive) with A549; 62.8 µM (inactive) in the experiment on CCRF-CEM; > 100 µM (inactive) in the experiment on SW-620; 60.3 µM (inactive) in the experiment with MOLT-4; > 100 µM (inactive) in the experiment with M14; 83.9 µM (inactive) in the experiment with DMS-114. In addition, the GI50 with SK-OV-3 was > 100 µM (inactive); in the experiment with IGROV-1 it was > 100 µM (inactive); in the experiment with EKVX, > 100 µM (inactive); with DLD-1, 99.1 µM (inactive); with NCI-H460, 92.7 µM (inactive); in the experiment with COLO 205, 61.2 µM (inactive). The GI50 in the experiment with UACC-257 is 63.7 µM (inactive).

For `COc1ccc(Nc2nc(C#N)c(N)s2)cc1`, the GI50 with A549 was 27.2 µM (inactive); with SW-620, 46.1 µM (inactive); in the experiment with MOLT-4 it was > 10 µM (inactive); with M14, 81.5 µM (inactive); with SK-OV-3, 34 µM (inactive); with CAKI-1 it was 24.6 µM (inactive). Moreover, the GI50 in the experiment with IGROV-1 was 76.6 µM (inactive); with DLD-1 it was 48.6 µM (inactive); in the experiment on NCI-H460, > 100 µM (inactive); in the experiment with COLO 205, 35.9 µM (inactive); in the experiment with UACC-257, 17.1 µM (inactive).

With `O=C(O)NC(c1ccccc1)C(NC(=O)c1ccccc1)c1ccccc1` (stereo unspecified), the GI50 in the experiment with A549, with SW-620, in the experiment on DMS-114, with CAKI-1, in the experiment on IGROV-1 and with EKVX was > 100 µM (inactive) throughout. For the same compound, the GI50 in the experiment on A498, in the experiment with DLD-1, in the experiment on NCI-H460, in the experiment on COLO 205 and with UACC-257 was > 100 µM (inactive) throughout.

In the case of `OC12c3ccccc3C1CCCCCCCCCC21OCCO1` (stereo unspecified), the GI50 in the experiment with A549, in the experiment with CCRF-CEM, with SW-620, with MOLT-4, in the experiment with M14 and in the experiment with DMS-114 was > 100 µM (inactive) each time. The GI50 with SK-OV-3, with CAKI-1, in the experiment on IGROV-1, with A498, in the experiment on NCI-H460 and with COLO 205 was > 100 µM (inactive) each time. In addition, in the experiment with UACC-257, the GI50 was > 100 µM (inactive).

With `CCOC(=O)C(C(=O)OCC)P(=S)(S)c1ccccc1` (stereo unspecified), the GI50 in the experiment with A549, with CCRF-CEM, in the experiment on SW-620, in the experiment on MOLT-4, in the experiment with DMS-114 and in the experiment with SK-OV-3 was > 100 µM (inactive) each time. Further, the GI50 in the experiment with CAKI-1, with IGROV-1, in the experiment on EKVX, with A498, in the experiment on DLD-1 and with NCI-H460 was > 100 µM (inactive) each time. In addition, the GI50 with COLO 205 and with UACC-257 was > 100 µM (inactive) each time.

In the case of `OC1CCC[C@@H]1Sc1ccccc1` (stereo partly specified), the GI50 with A549, in the experiment on CCRF-CEM, with SW-620, with MOLT-4, with M14 and in the experiment with DMS-114 was > 100 µM (inactive) in each case. The GI50 with SK-OV-3, in the experiment with CAKI-1, in the experiment on EKVX, in the experiment with A498, in the experiment with DLD-1 and in the experiment with NCI-H460 was > 100 µM (inactive) throughout. Moreover, the GI50 with COLO 205 and in the experiment with UACC-257 was > 100 µM (inactive) each time.
